What was measured:
[1] = not given; remark: listed apart in the source
[2] = method code SF-AS, from DOI: 10.1246/bcsj.63.3542
[3] = method code SF-GLC, from DOI: 10.1016/0166-445x(88)90052-5
[4] = not given; remark: listed apart in the source
[5] = not given; remark: listed apart in the source
[6] = not given; remark: listed apart in the source
[7] = method code SF, from DOI: 10.1080/09553008714551831, PMID: 3497891; settings: pH 7.4
[8] = method code SF-AS, from DOI: 10.1248/cpb.40.925
[9] = not given; remark: listed apart in the source
[10] = not given; remark: listed apart in the source
[11] = not given; remark: listed apart in the source
[12] = method code SF, from DOI: 10.1002/jps.2600830714, PMID: 7965679
[13] = not given; remark: listed apart in the source
[14] = not given; remark: listed apart in the source
[15] = not given; remark: listed apart in the source
[16] = method code SF-AS, from DOI: 10.1211/0022357001777513, PMID: 11186244; settings: pH 7.3
[17] = method code SF-RC, from DOI: 10.1021/es60170a013
[18] = method code SF, from Kruglik, P.; Leschev, M.; Rakhman'ko, M.; Bubel, N.; Asratyan, V. (1991). Extraction of 1,2,4-triazole and its derivatives by organic solvents. 64(8)1721-1724.
[19] = not given; remark: listed apart in the source
[20] = not given; remark: listed apart in the source
[21] = method code SF-AS, from DOI: 10.1021/jm00197a006, PMID: 533877
[22] = method code SF-AS, from DOI: 10.1016/0378-5173(82)90004-7; settings: pH 3.0
[23] = method code SF-AS, from DOI: 10.1002/ps.2780110406
[24] = method code SF-GLC, from DOI: 10.1016/s0045-6535(02)00841-x, PMID: 12615110
[25] = method code SF, from DOI: 10.1016/0360-3016(89)90912-7, PMID: 2703384; settings: pH 7.4
[26] = not given; remark: listed apart in the source
[27] = not given; remark: listed apart in the source
[28] = method code SF-HPLC, from DOI: 10.1002/jlac.1995199512305
[29] = method code SF, from DOI: 10.1039/p29920000723

With `COCCO` the logP was -0.61.
`c1ccc2cc3c(ccc4ccccc43)cc2c1` showed a logP [1] of 5.93.
For `CN(C)C(=O)c1ccccn1`, the logP [2] was -0.45.
In the case of `ClCC1CO1` (configuration not stated), the logP [3] is reported as 0.45.
For `Oc1ccccc1O`, the logP [4] was 1.1.
Compound `Cc1ccc(O)c(C)c1` has a logP [5] of 2.48.
Work on `Oc1cc(Cl)c(Cl)c(Cl)c1O` yielded a logP [6] of 3.56.
Work on `Nc1ncc([N+](=O)[O-])s1` yielded a logD [7] of 0.89.
For `COC(=O)c1ccc(Br)o1`, the logP [8] was 1.84.
`Nc1ccc(Cl)cc1Cl` showed a logP [9] of 2.64.
`CC(Cl)CCl` (configuration not stated) showed a logP [10] of 1.98.
`ClC=C(Cl)Cl` showed a logP [10] of 2.67.
`NC(=S)Nc1cccc2ccccc12` gave a logP [11] of 1.66.
Compound `CNc1cnccn1` has a logP [2] of 0.56.
Compound `O=NN(CCCl)C(=O)NCC(=O)O` has a logP [12] of -1.25.
`Nc1c(F)cc(F)cc1F` gave a logP [13] of 1.81.
Compound `CCCCC1C(=O)N(c2ccccc2)N(c2ccc(O)cc2)C1=O` (configuration not stated) has a logP [14] of 3.04.
In the case of `OCc1ccc(Br)cc1`, the logP [13] is reported as 2.15.
With `COc1cc2c(c(OC)c1OC)-c1ccc(O)c(=O)cc1[C@@H](NC(C)=O)CC2` the logP [15] was 1.03.
Compound `Oc1ccc(-c2c3nc(c(-c4ccc(O)cc4)c4ccc([nH]4)c(-c4ccc(O)cc4)c4nc(c(-c5ccc(O)cc5)c5ccc2[nH]5)C=C4)C=C3)cc1` has a logD [16] of 4.77.
`BrCC1CO1` (configuration not stated) showed a logP [3] of 0.85.
For `ClC(Cl)C(Cl)Cl`, the logP [17] was 2.39.
Work on `CCCn1cnc([N+](=O)[O-])n1` yielded a logP [18] of 0.22.
`ClCCCl` showed a logP [10] of 1.55.
For `Cc1cc(=O)n(-c2ccc(Cl)cc2)cc1C(=O)O`, the logP [19] was 4.1.
Compound `ClC(Cl)=C(Cl)C(Cl)=C(Cl)Cl` has a logP [9] of 4.74.
`Cc1c2ccccc2c(C)c2c1ccc1ccccc12` showed a logP [20] of 6.16.
With `Oc1ccc(Cl)c(O)c1` the logP [17] was 1.8.
For `O/N=C/c1cnns1`, the logP [21] was 0.86.
Work on `CC1(C)C(=O)NC(=O)NC1=O` yielded a logD [22] of -0.44.
With `OCC(O)COc1cccc(-c2c3nc(c(-c4cccc(OCC(O)CO)c4)c4ccc([nH]4)c(-c4cccc(OCC(O)CO)c4)c4nc(c(-c5cccc(OCC(O)CO)c5)c5ccc2[nH]5)C=C4)C=C3)c1` (configuration not stated) the logD [16] was 4.83.
With `Cc1ccc(O)cc1` the logP [4] was 2.03.
Work on `O=C(O)c1cc(C(F)(F)F)nc2ccccc12` yielded a logP [19] of 3.14.
With `Clc1cc(Cl)c(Cl)c(Cl)c1` the logP [23] was 4.68.
Compound `Brc1cc(Br)c(Oc2cc(Br)c(Br)cc2Br)c(Br)c1` has a logP [24] of 7.82.
In the case of `O=NN(CCCl)C(=O)N[C@@H](Cc1ccccc1)C(=O)O`, the logP [12] is reported as -0.28.
`COCC(O)Cn1cnc([N+](=O)[O-])n1` (configuration not stated) showed a logD [7] of -0.47.
Work on `On1nc2ccccc2n1` yielded a logP [15] of 0.69.
In the case of `CC(C)=CCC1(C(C)C)C(=O)NC(=O)NC1=O`, the logD [22] is reported as 2.23.
In the case of `Cc1ccc(Cl)cc1Cl`, the logP [6] is reported as 4.09.
`Brc1ccsc1Br` showed a logP [11] of 3.53.
In the case of `O=[N+]([O-])c1nc[nH]n1`, the logP [18] is reported as -0.41.
`O=[N+]([O-])c1cn(CC(F)CO)cn1` (configuration not stated) showed a logD [25] of -0.8.
`ClCc1cccc(CCl)c1` showed a logP [9] of 2.72.
In the case of `CC(C=CC1=C(C)C=CCC1(C)C)=CC=CC(C)=CCO`, the logP [26] is reported as 7.41.
For `Oc1ccc(Cl)cc1Cl`, the logP [4] was 3.12.
In the case of `CN(C)C(=O)c1cnccn1`, the logP [2] is reported as -0.8.
`CSc1ccc(C=C2C(C)=C(CC(=O)O)c3cc(F)ccc32)cc1` showed a logP [14] of 4.76.
`ClC(Cl)Cl` gave a logP [17] of 1.9.
`CC(C)COCCO` showed a logP of 0.75.
For `OCC1CO1` (configuration not stated), the logP [3] was -0.95.
With `Brc1ccc(Oc2c(Br)cc(Br)cc2Br)c(Br)c1` the logP [24] was 7.24.
In the case of `COCC(F)Cn1cnc([N+](=O)[O-])c1` (configuration not stated), the logD [25] is reported as -0.04.
With `COC(=O)c1c[nH]c2ccccc12` the logP [8] was 2.57.
With `OCC(O)COc1cccc(-c2c3nc(c(-c4cccc(OCC(O)CO)c4F)c4ccc([nH]4)c(-c4cccc(OCC(O)CO)c4F)c4nc(c(-c5cccc(OCC(O)CO)c5F)c5ccc2[nH]5)C=C4)C=C3)c1F` (configuration not stated) the logD [16] was 2.65.
In the case of `COCC(O)Cn1ncc([N+](=O)[O-])n1` (configuration not stated), the logD [7] is reported as -0.1.
In the case of `CC(C)n1ccc(=O)c(O)c1`, the logP [27] is reported as -0.02.
`Cc1nnc(/C=N/O)s1` gave a logP [21] of 0.78.
`Cn1cnc([N+](=O)[O-])n1` gave a logP [18] of -0.45.
`CCOP(=S)(OCC)Oc1cccc(F)n1` gave a logP [23] of 3.51.
Compound `CC(=O)OCC1OC(OC(C)=O)C(NC(=O)C(C)NC(=O)N(CCCl)N=O)C(OC(C)=O)C1OC(C)=O` (configuration not stated) has a logP [12] of 0.71.
In the case of `Cc1nsc(C=NO)n1`, the logP [21] is reported as 1.29.
Compound `CC(C)(CO)[C@@H](O)C(=O)NCCC(=O)O` has a logP [26] of -1.69.
For `O=C(O)c1snc(Cl)c1Cl`, the logP [19] was 1.44.
With `Cc1cn(C2CC(N=[N+]=[N-])C(COP(=O)(OCC3OC(n4cc(C)c(=O)[nH]c4=O)CC3N=[N+]=[N-])C(O)c3ccc(Cl)cc3)O2)c(=O)[nH]c1=O` (configuration not stated) the logP [28] was 1.45.
Work on `CC(=O)OCC(=O)[C@H]1CC[C@H]2[C@@H]3CCC4=CC(=O)CC[C@]4(C)[C@H]3CC[C@]12C` yielded a logP [15] of 3.08.
`NC(=O)c1ccccc1Cl` gave a logP [1] of 0.94.
Compound `OCC(O)COc1c(F)cc(-c2c3nc(c(-c4cc(F)c(OCC(O)CO)c(F)c4)c4ccc([nH]4)c(-c4cc(F)c(OCC(O)CO)c(F)c4)c4nc(c(-c5cc(F)c(OCC(O)CO)c(F)c5)c5ccc2[nH]5)C=C4)C=C3)cc1F` (configuration not stated) has a logD [16] of 2.61.
With `COC(=O)c1cc2ccccc2o1` the logP [8] was 2.53.
In the case of `O=C(O)CCCC[C@@H]1SC[C@@H]2NC(=O)N[C@@H]21`, the logP [26] is reported as 0.39.
`CNC(=S)NCC(F)(F)C(F)(F)C(F)(F)F` gave a logP [29] of 2.39.
With `O=c1cc(-c2ccccc2)oc2ccc3ccccc3c12` the logP [11] was 4.94.
Compound `Cc1cn(C2CC(N=[N+]=[N-])C(COP(=O)(OCC3OC(n4cc(C)c(=O)[nH]c4=O)CC3N=[N+]=[N-])C(O)c3ccc([N+](=O)[O-])cc3)O2)c(=O)[nH]c1=O` (configuration not stated) has a logP [28] of 0.83.
With `Oc1c(O)c(Cl)c(Cl)c(Cl)c1Cl` the logP [6] was 4.12.
In the case of `O=S1CCCC1`, the logP [14] is reported as -0.96.
For `CCOP(=O)(NC(C)C)Oc1ccc(SC)c(C)c1` (configuration not stated), the logP [23] was 3.18.
Compound `C=CCOCCO` has a logP of -0.1.
`N#CCCCCOC(=O)c1ccccc1` showed a logP [29] of 2.05.
For `OC1CCCCC1`, the logP [20] was 1.36.
Work on `OCc1ccccc1F` yielded a logP [13] of 1.3.
Compound `O=[N+]([O-])c1nccn1CC(F)CO` (configuration not stated) has a logD [25] of -0.38.
In the case of `COc1ccc(C(O)P(=O)(OCC2OC(n3cc(C)c(=O)[nH]c3=O)CC2N=[N+]=[N-])OCC2OC(n3cc(C)c(=O)[nH]c3=O)CC2N=[N+]=[N-])cc1` (configuration not stated), the logP [28] is reported as 0.72.
For `CCCn1ccc(=O)c(O)c1`, the logP [27] was -0.17.
Work on `Cn1ccc(=O)c(O)c1` yielded a logP [27] of -0.7.
With `CCCC(C)=O` the logP [20] was 0.95.
Work on `COc1ccccn1` yielded a logP [1] of 1.23.
With `Clc1ccc(-c2ccccc2)cc1Cl` the logP [5] was 5.11.
For `CCS(=O)(=O)NC(=O)CCc1ccccc1`, the logP [29] was 1.67.
With `Brc1ccc(Oc2ccc(Br)cc2Br)c(Br)c1` the logP [24] was 6.81.
For `CC(C)(C)O`, the logP [5] was 0.34.
Compound `CC(C)=CCC1(C(C)(C)C)C(=O)NC(=O)NC1=O` has a logD [22] of 2.56.
Compound `Cc1cn(C2CC(N=[N+]=[N-])C(COP(=O)(OCC3OC(n4cc(C)c(=O)[nH]c4=O)CC3N=[N+]=[N-])C(O)c3ccc([N+](=O)[O-])cc3[N+](=O)[O-])O2)c(=O)[nH]c1=O` (configuration not stated) has a logP [28] of 0.94.
